Assay results: patent publication US4772602A, “N-substituted 3,4-dihydropyrimidine derivatives as agents for treating disorders of cardiovascular system” (Suntory Limited, priority 1985, dated 1988)

Legend:
vertebral artery [1] = experiment: vascular resistance of the vertebral artery in anesthetized dogs (ED30); format: in vivo, dog; details: Canis lupus familiaris, intravenous injection
Description: The pharmacological effect (ED30) of the compounds of the present invention with respect to the vascular resistance of the vertebral artery in anesthetized dogs was treated by the following procedure.
Adult dogs of either sex (7-14 kg in body weight) were anesthetized with at first thiopental sodium (35 mg/kg, intraperitoneal), anesthetized with urethane (400 mg/kg, intravenous) and chloralose (60 mg/kg, intravenous) and kept under artificial respiration throughout the experiment. After thoracotomy at the left first intercostal space, the vertebral artery was exposed and blood flow was measured with intracorporeal flow probe connected to an electromagnetic flowmeter (MF-27, Nihon Kohden).
At the same time, continuous measurement of the following parameters was made: systemic blood pressure (mean pressure) at the right femoral artery, the limb lead II ECG, the heart rate with a tachometer triggered by the R wave of ECG, and the vascular resistance determined by loading a electronic divider unit (EO-601 G, Nihon Kohden) with the mean values of blood pressure and vertebral artery blood flow. All of these parameters were recorded simultaneously on a polygraph (RM-600, Nihon Kohden).
All the test compounds were injected through a cannula inserted into the femoral vein.
The ED30 (μg/kg) values obtained by intravenous injection are listed in Table 4, wherein the Compound Numbers are keyed to the Example Numbers.

vertebral artery [2] = experiment: time course of reduction of the resistance of the vertebral artery in anesthetized dogs (T1/2); format: in vivo, dog; details: ED30 doses injected
Description: Selected compounds of the present invention were tested for their ability to reduce the resistance of the vertebral artery in anesthetized dogs.
The animals were injected with the ED30 doses of test compounds and the time course of changes in the vasucular resistance were studied as shown schematically in FIG. 1. From the curve shown in FIG. 1, the values of T1/2 (min) (the time to reach 50% of the resistance drop). The results are shown in Table 5, in which the compound numbers correspond to the Example numbers.

[3] = tested on: isolated guinea pig hearts (coronary artery); experiment: coronary vascular dilative effect in isolated guinea pig hearts (Langendorff's method); parameters: species or system guinea pig (Heartley); details: 37° C., 0.1 ml administered into the coronary artery
Description: The coronary vascular dilative effect of 3N-substituted 3,4-dihydropyrimidine derivatives was tested.
Heartley guinea pigs (weight 400-500 g) were killed by a blow on the head and their hearts were immediately isolated. The hearts were perfused with Krebs-Henseleit solution bubbled with a mixture of 95% O2 +5% CO2 and maintained at 37° C. at a constant rate of 6 ml/minute according to the Langendorff's method [J. Pharmacol. Methods 2, 143 (1979)]. The perfusion pressure was measured by a pressure transducer continuously. Samples were prepared by emulsifying 1 mg of a test compound in 1 ml of a mixture of dimethylsulfoxide and physiological saline solution (1:9) and diluting with physiological saline solution to the predetermined concentration. 0.1 ml of the diluted solution was administered into the coronary artery via a rubber tube connected to an aorta cannula to obtain ED50 (μg/heart) data as shown in Table 3. The numbers of the compounds in the Table correspond respectively to those of the working examples described above.

Compound | ED30 (vertebral artery [1]) | T1/2 (the time to reach 50% of the resistance drop) (vertebral artery [2]) | ED50 (coronary vascular dilative effect) [3]
CC1=NC(C)=C(C(=O)OC(C)C)C(c2ccccc2[N+](=O)[O-])N1C(=O)OCCN(CCc1ccccc1)Cc1ccccc1 (stereo not drawn) [Compound 62] | 1.2 µg/kg |  | 
CCCCN(CCOC(=O)N1C(C)=NC(C)=C(C(=O)OCC2CC2)C1c1ccccc1[N+](=O)[O-])Cc1ccccc1 (stereo not drawn) [Compound 14] | 2.1 µg/kg |  | 
CC1=NC(C)=C(C(=O)OCC(C)C)C(c2ccccc2[N+](=O)[O-])N1C(=O)OCCN(Cc1ccccc1)c1ccccc1 (stereo not drawn) [Compound 60] | 1.7 µg/kg |  | 
CC1=NC(C)=C(C(=O)OCC(C)C)C(c2ccccc2[N+](=O)[O-])N1C(=O)OCCN(Cc1ccccc1)Cc1ccccc1 (stereo not drawn) [Compound 55] | 3.8 µg/kg | 9.2 min | 
CC1=NC(C)=C(C(=O)OCC2CC2)C(c2ccccc2[N+](=O)[O-])N1C(=O)OCCN(C)C(c1ccccc1)c1ccccc1 (stereo not drawn) [Compound 8] | 4.1 µg/kg |  | 
CC1=NC(C)=C(C(=O)OC(C)C)C(c2ccccc2[N+](=O)[O-])N1C(=O)OCCN(CCc1ccccc1)c1ccccc1 (stereo not drawn) [Compound 54] | 1.4 µg/kg |  | 
CC1=NC(C)=C(C(=O)OC(C)C)C(c2ccccc2[N+](=O)[O-])N1C(=O)OCCN(Cc1ccccc1)Cc1ccccc1 (stereo not drawn) [Compound 49] | 2.8 µg/kg |  | 
CC1=NC(C)=C(C(=O)OCC2CC2)C(c2ccccc2[N+](=O)[O-])N1C(=O)OCCSc1nc2ccccc2s1 (stereo not drawn) [Compound 64] | 0.93 µg/kg |  | 
CC1=NC(C)=C(C(=O)OCC2CC2)C(c2ccccc2[N+](=O)[O-])N1C(=O)OCCN(C)Cc1ccc([N+](=O)[O-])cc1 (stereo not drawn) [Compound 7] | 0.71 µg/kg |  | 0.0012 μg/heart
CC1=NC(C)=C(C(=O)OCC2CC2)C(c2ccccc2[N+](=O)[O-])N1C(=O)OCCN(C/C=C/c1ccccc1)Cc1cccs1 (stereo not drawn) [Compound 32] | 3.2 µg/kg | 7.0 min | 
CCOC(=O)C1=C(C)N=C(C)N(C(=O)OCCN(CCCc2ccccc2)Cc2ccccc2)C1c1cccc([N+](=O)[O-])c1 (stereo not drawn) [Compound 38] | 4.2 µg/kg | 8.0 min | 
CC1=NC(C)=C(C(=O)OCC2CC2)C(c2ccccc2[N+](=O)[O-])N1C(=O)OCCN(C)CCc1ccccc1 (stereo not drawn) [Compound 17] | 3.4 µg/kg |  | 
CC1=NC(C)=C(C(=O)OC(C)C)C(c2ccccc2[N+](=O)[O-])N1C(=O)OCCN(CCCc1ccccc1)c1ccccc1 (stereo not drawn) [Compound 53] | 2.5 µg/kg | 7.7 min | 
CC1=NC(C)=C(C(=O)OC(C)C)C(c2cccc([N+](=O)[O-])c2)N1C(=O)OCCN(Cc1ccccc1)c1ccccc1 (stereo not drawn) [Compound 70] | 3 µg/kg |  | 
CC1=NC(C)=C(C(=O)OCC2CC2)C(c2ccccc2[N+](=O)[O-])N1C(=O)OCCN(Cc1ccccc1)Cc1ccccc1 (stereo not drawn) [Compound 52] | 1.5 µg/kg | 8.0 min | 
CC1=NC(C)=C(C(=O)OCC2CC2)C(c2ccccc2[N+](=O)[O-])N1C(=O)OCCN(C/C=C/c1ccccc1)C/C=C/c1ccccc1 (stereo not drawn) [Compound 33] |  | 30.5 min | 
CCCCOC(=O)C1=C(C)N=C(C)N(C(=O)OCCN(Cc2ccccc2)Cc2ccccc2)C1c1ccccc1[N+](=O)[O-] (stereo not drawn) [Compound 47] |  | 13.0 min | 
COC(=O)C1=C(C)N=C(C)N(C(=O)OCCN(Cc2ccccc2)Cc2ccccc2)C1c1ccccc1[N+](=O)[O-] (stereo not drawn) [Compound 48] | 2 µg/kg |  | 
CC1=NC(C)=C(C(=O)OCC2CC2)C(c2ccccc2[N+](=O)[O-])N1C(=O)OCCc1cccs1 (stereo not drawn) [Compound 63] | 1.3 µg/kg |  | 
CC1=NC(C)=C(C(=O)OCC2CC2)C(c2ccccc2[N+](=O)[O-])N1C(=O)OCCN(C/C=C/c1ccccc1)Cc1ccccc1 (stereo not drawn) [Compound 29] | 2.5 µg/kg | 9.5 min | 
CC1=NC(C)=C(C(=O)OCC2CC2)C(c2ccccc2[N+](=O)[O-])N1C(=O)OCCN(C)Cc1ccc2ccccc2c1 (stereo not drawn) [Compound 30] | 0.6 µg/kg |  | 
CC1=NC(C)=C(C(=O)OC(C)C)C(c2ccccc2[N+](=O)[O-])N1C(=O)OCCN(CCCc1ccccc1)Cc1ccccc1 (stereo not drawn) [Compound 39] | 2.3 µg/kg |  | 

Compound | ED30 (vertebral artery [1]) | T1/2 (the time to reach 50% of the resistance drop) (vertebral artery [2]) | ED50 (coronary vascular dilative effect) [3]
CCN(CCOC(=O)N1C(C)=NC(C)=C(C(=O)OCC2CC2)C1c1ccccc1[N+](=O)[O-])c1ccccc1 (stereo not drawn) [Compound 15] | 2.5 µg/kg |  | 
CC1=NC(C)=C(C(=O)OC(C)C)C(c2ccccc2[N+](=O)[O-])N1C(=O)OCCN(Cc1ccccc1)Cc1ccc2ccccc2c1 (stereo not drawn) [Compound 45] | 1.8 µg/kg | 15.6 min | 
CC1=NC(C)=C(C(=O)OC(C)C)C(c2cccc([N+](=O)[O-])c2)N1C(=O)OCCN(CCCc1ccccc1)Cc1ccccc1 (stereo not drawn) [Compound 37] |  | 10.3 min | 
CC1=NC(C)=C(C(=O)OC(C)C)C(c2ccccc2[N+](=O)[O-])N1C(=O)OCCc1ccccn1 (stereo not drawn) [Compound 27] |  |  | 0.029 μg/heart
CCCOC(=O)C1=C(C)N=C(C)N(C(=O)OCCN(Cc2ccccc2)Cc2ccccc2)C1c1ccccc1[N+](=O)[O-] (stereo not drawn) [Compound 46] | 2 µg/kg |  | 
CC1=NC(C)=C(C(=O)OC(C)C)C(c2ccccc2[N+](=O)[O-])N1C(=O)OCCN(Cc1ccccc1)Cc1ccccn1 (stereo not drawn) [Compound 68] | 4.4 µg/kg |  | 
CC1=NC(C)=C(C(=O)OC(C)C)C(c2ccccc2[N+](=O)[O-])N1C(=O)OCCN(Cc1ccccc1)Cc1cccs1 (stereo not drawn) [Compound 67] | 1 µg/kg |  | 
CC1=NC(C)=C(C(=O)OC(C)C)C(c2ccccc2[N+](=O)[O-])N1C(=O)OCCN(Cc1ccccn1)c1ccccc1 (stereo not drawn) [Compound 58] | 2.5 µg/kg |  | 
CC1=NC(C)=C(C(=O)OC(C)C)C(c2ccccc2[N+](=O)[O-])N1C(=O)OCCN(Cc1ccccc1)c1ccccc1 (stereo not drawn) [Compound 50] | 0.74 µg/kg |  | 
CC1=NC(C)=C(C(=O)OCC2CC2)C(c2cccc([N+](=O)[O-])c2)N1C(=O)OCCN(CCCc1ccccc1)Cc1ccccc1 (stereo not drawn) [Compound 36] |  | 12.0 min | 
CC1=NC(C)=C(C(=O)OCC2CC2)C(c2ccccc2[N+](=O)[O-])N1C(=O)OCCN1CCOCC1 (stereo not drawn) [Compound 20] | 4 µg/kg |  | 
COC(=O)C1=C(C)N=C(C)N(C(=O)OCCN(Cc2ccccc2)c2ccccc2)C1c1ccccc1[N+](=O)[O-] (stereo not drawn) [Compound 71] | 5 µg/kg |  | 
CCOC(=O)C1=C(C)N=C(C)N(C(=O)OCCN(CCCc2ccccc2)Cc2ccccc2)C1c1ccccc1[N+](=O)[O-] (stereo not drawn) [Compound 40] | 1.5 µg/kg |  | 
CC1=NC(C)=C(C(=O)OC(C)C)C(c2ccccc2[N+](=O)[O-])N1C(=O)OCCN(CCCc1ccccc1)CCCc1ccccc1 (stereo not drawn) [Compound 66] |  | 11.9 min | 
CC1=NC(C)=C(C(=O)OCC2CC2)C(c2ccccc2[N+](=O)[O-])N1C(=O)OCCN1CCN(c2cccc(C(F)(F)F)c2)CC1 (stereo not drawn) [Compound 26] | 4.1 µg/kg |  | 
CC1=NC(C)=C(C(=O)OCC2CC2)C(c2ccccc2[N+](=O)[O-])N1C(=O)OCCN1CCN(Cc2ccccc2)CC1 (stereo not drawn) [Compound 24] |  |  | 0.01 μg/heart
CC1=NC(C)=C(C(=O)OCC2CC2)C(c2ccccc2[N+](=O)[O-])N1C(=O)OCC1CCCN1Cc1ccccc1 (stereo not drawn) [Compound 19] | 1.4 µg/kg |  | 
CCOC(=O)C1=C(C)N=C(C)N(C(=O)OCCN(Cc2ccccc2)Cc2ccccc2)C1c1ccccc1[N+](=O)[O-] (stereo not drawn) [Compound 61] | 1.4 µg/kg |  | 
COC(=O)C1=C(C)N=C(C)N(C(=O)OCCN(CCCc2ccccc2)Cc2ccccc2)C1c1ccccc1[N+](=O)[O-] (stereo not drawn) [Compound 57] | 0.48 µg/kg |  | 
CC1=NC(C)=C(C(=O)OCC2CC2)C(c2ccccc2[N+](=O)[O-])N1C(=O)OCCN(C)Cc1ccccn1 (stereo not drawn) [Compound 35] | 4.2 µg/kg |  | 
CC1=NC(C)=C(C(=O)OCC2CC2)C(c2ccccc2[N+](=O)[O-])N1C(=O)OCCCN(C)Cc1ccccc1 (stereo not drawn) [Compound 16] | 3.8 µg/kg |  | 
